Literature values in patent US6670393B2, “Carbamate-based cationic lipids” (Promega Biosciences, Inc., priority 1995, dated 2003).

Tested on: cells

Q: What does the source list for `CC(C)CCC[C@@H](C)[C@H]1CC[C@H]2[C@@H]3CC=C4C[C@@H](OC(=O)NCCN(C)C)CC[C@]4(C)[C@H]3CC[C@]12C` [DC-Chol]?
A: toxicity to cells (reported): lower toxicity; transfection (reported): more efficient transfection
